Experimental data published in the supplement of paper PMC10307832.

Assays:
Assay in all cases: relative viability (nuclei count vs DMSO), 5 days (fraction); higher = more cells survive
XMD13-2 + Navitoclax = compound: C1CC1C(=O)NC2=NNC3=C2C=CC(=C3)C4=CC(=CC=C4)C(=O)NC5CC5 [XMD13-2] + CC1(C)CCC(c2ccc(Cl)cc2)=C(CN2CCN(c3ccc(C(=O)NS(=O)(=O)c4ccc(N[C@H](CCN5CCOCC5)CSc5ccccc5)c(S(=O)(=O)C(F)(F)F)c4)cc3)CC2)C1 [Navitoclax] (partner 0.5 µM)
Summary of the method: (§1)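 Relative viability was taken as the ratio of nuclei in treated wells to nuclei in vehicle wells. Lung cancer cell lines in 1536-well plates received compounds by pin tool one day after seeding, either one drug alone or a fixed anchor-drug dose plus five library-drug doses (not always all listed) in √10 steps. Nuclei were counted on 4× images after 5 days of treatment, and values are medians of duplicate plates.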

XMD13-2 + Luminespib = compound: C1CC1C(=O)NC2=NNC3=C2C=CC(=C3)C4=CC(=CC=C4)C(=O)NC5CC5 [XMD13-2] + CCNC(=O)c1noc(-c2cc(C(C)C)c(O)cc2O)c1-c1ccc(CN2CCOCC2)cc1 [Luminespib] (partner 0.01 µM)
Summary of the method: as §1

XMD13-2 + Pemetrexed = compound: C1CC1C(=O)NC2=NNC3=C2C=CC(=C3)C4=CC(=CC=C4)C(=O)NC5CC5 [XMD13-2] + Nc1nc2[nH]cc(CCc3ccc(C(=O)N[C@@H](CCC(=O)O)C(=O)O)cc3)c2c(=O)[nH]1 [Pemetrexed] (partner 0.2 µM)
Summary of the method: as §1

Dasatinib + Vorinostat = compound: Cc1nc(Nc2ncc(C(=O)Nc3c(C)cccc3Cl)s2)cc(N2CCN(CCO)CC2)n1 [Dasatinib] + O=C(CCCCCCC(=O)Nc1ccccc1)NO [Vorinostat] (partner 1 µM)
Summary of the method: as §1

UMC-11 gave a relative viability (XMD13-2 + Navitoclax; first compound 0.05 µM) of 0.347, a relative viability (XMD13-2 + Navitoclax; first compound 0.1581 µM) of 0.284 and a relative viability (XMD13-2 + Navitoclax; first compound 0.5 µM) of 0.309. For the same cell line, the relative viability (XMD13-2 + Navitoclax; first compound 1.581 µM) was 0.344, the relative viability (XMD13-2 + Navitoclax; first compound 5 µM) was 0.265 and the relative viability (XMD13-2 + Luminespib; first compound 0.05 µM) was 1.11. For the same cell line, the relative viability (XMD13-2 + Luminespib; first compound 0.1581 µM) was 1.02, the relative viability (XMD13-2 + Luminespib; first compound 0.5 µM) was 0.992 and the relative viability (XMD13-2 + Luminespib; first compound 1.581 µM) was 0.961. For the same cell line, the relative viability (XMD13-2 + Luminespib; first compound 5 µM) was 0.974, the relative viability (XMD13-2 + Pemetrexed; first compound 0.05 µM) was 0.914 and the relative viability (XMD13-2 + Pemetrexed; first compound 0.1581 µM) was 0.761. For the same cell line, the relative viability (XMD13-2 + Pemetrexed; first compound 0.5 µM) was 0.791, the relative viability (XMD13-2 + Pemetrexed; first compound 1.581 µM) was 0.845 and the relative viability (XMD13-2 + Pemetrexed; first compound 5 µM) was 0.772. The relative viability (Dasatinib + Vorinostat; first compound 0.005 µM) was 0.409, the relative viability (Dasatinib + Vorinostat; first compound 0.01581 µM) was 0.289 and the relative viability (Dasatinib + Vorinostat; first compound 0.05 µM) was 0.315. It also gave a relative viability (Dasatinib + Vorinostat; first compound 0.1581 µM) of 0.203 and a relative viability (Dasatinib + Vorinostat; first compound 0.5 µM) of 0.218.
